In general, CC50 refers to the concentration at which the toxic effect on the cells reaches its halfway point. The low end stands for greater toxicity to the cells, the high end for lower toxicity to the cells. As usually defined, the EC50 is the midpoint of the concentration-response curve. High values mean weaker potency, low ones greater potency.

Where only a bound is given, the exact number is not on record here.

These results are taken from US11236108B2, “Functionalized heterocycles as antiviral agents” (ENANTA PHARMACEUTICALS, INC., priority 2019, dated 2022).

Data set [1] in a line: Compound induced cellular toxicity in HepG2 cells (ATPlite 1 Step). The conditions noted are these: human, three days exposure, 50% reduction of total ATP levels relative to no drug controls. The format is cell-based. As to the method: At day 3, post seeding cells are treated with ATPlite 1 Step according to the manufacturer's instructions.
(In general: Cellular ATP, detected with luciferase, serves as a proxy for viable cell number.)

The subject of a further data set is hepatitis B virus (HBV). The data set can be described thus: Reduction of viral product accumulation (HBV DNA qPCR, HBsAg or HBeAg ELISA) in 2.2.15 cells. The following applies: 120 h, day 5 post treatment, 50% reduction of viral product accumulation in cell lysates or supernatants relative to no drug controls, readout not specified. Type of data set: cell-based. As to the method: 2.2.15 cells are passaged upon attaining confluency in DMEM/F12 media in the presence of 10% FBS, Penn/Strep, and 250 ug/mL G418. Novel compounds are 5 fold serially diluted in DMSO and added to 96 well plates containing 35,000 cells/well at a 1:200 dilution so that the final concentration of DMSO is 0.5%. On day 5, post treatment cell lysates and supernatants are harvested for analysis.
Cells are lysed using Agilent Sidestep Lysis buffer, diluted 1:100 and quantified via quantitative real time PCR. Commercially available ELISA kits are used to quantitate the viral proteins HBsAg (Alpco) or HBeAg (US Biological) by following the manufacturer's recommended protocol after diluting samples to match the linear range of their respective assays. Irrespective of readout, compound concentrations that reduce viral product accumulation in the cell lysates or supernatants by 50% relative to no drug controls (EC50) are reported; EC50 ranges are as follows: A<0.1 μM; B 0.1-1 μM; C>1 μM.

In data set [1], `CC(C)(C)[C@@H]1Oc2c(cc(Br)c3occc23)-c2c1cc(C(=O)O)c(=O)n2C1CC1` [Example 1, (S)-11-bromo-5-(tert-butyl)-9-cyclopropyl-8-oxo-8,9-dihydro-5H-furo[2′,3′:7,8]chromeno[4,3-b]pyridine-7-carboxylic acid] registered a CC50 at 3 days of over 25 µM. Moreover, the EC50 in the data set with hepatitis B virus (HBV) is under 0.1 µM.
In turn, `CC(C)(C)[C@@H]1Oc2c(cc(Cl)c3occc23)-c2c1cc(C(=O)O)c(=O)n2C1CC1` [Example 2, (S)-5-(tert-butyl)-11-chloro-9-cyclopropyl-8-oxo-8,9-dihydro-5H-furo[2′,3′:7,8]chromeno[4,3-b]pyridine-7-carboxylic acid] returned a CC50 at 3 days in data set [1] of over 25 µM. The 50% effective concentration (EC50) with hepatitis B virus (HBV) is under 0.1 µM.
The molecule `CC(C)(C)[C@@H]1Oc2c(cc(Cl)c3ccoc23)-c2c1cc(C(=O)O)c(=O)n2C1CC1` [Example 3, (S)-5-(tert-butyl)-11-chloro-9-cyclopropyl-8-oxo-8,9-dihydro-5H-furo[3′,2′:7,8]chromeno[4,3-b]pyridine-7-carboxylic acid] came in with a CC50 at 3 days in data set [1] of over 25 µM. The EC50 in the data set on hepatitis B virus (HBV) was under 0.1 µM.
For `CC(C)(C)[C@@H]1Oc2c(ccc3occc23)-c2c1cc(C(=O)O)c(=O)n2C1CC1` [Example 4, (S)-5-(tert-butyl)-9-cyclopropyl-8-oxo-8,9-dihydro-5H-furo[2′,3′:7,8]chromeno[4,3-b]pyridine-7-carboxylic acid], in that order: over 25 µM and under 0.1 µM.
The like results for `CC(C)(C)[C@@H]1Oc2c(cc(O)c3occc23)-c2c1cc(C(=O)O)c(=O)n2C1CC1` [Example 5, (S)-5-(tert-butyl)-9-cyclopropyl-11-hydroxy-8-oxo-8,9-dihydro-5H-furo[2′,3′:7,8]chromeno[4,3-b]pyridine-7-carboxylic acid] were, in that order, over 25 µM and under 0.1 µM.
For `COc1cc2c(c3ccoc13)O[C@@H](C(C)(C)C)c1cc(C(=O)O)c(=O)n(C3CC3)c1-2` [Example 6, (S)-5-(tert-butyl)-9-cyclopropyl-11-methoxy-8-oxo-8,9-dihydro-5H-furo[2′,3′:7,8]chromeno[4,3-b]pyridine-7-carboxylic acid], the CC50 at 3 days in data set [1] is over 25 µM. In the data set with hepatitis B virus (HBV), this molecule had an EC50 of under 0.1 µM.
